Results as given in patent US20250101052A1, “COMPOUND FOR EGFR KINASE INHIBITOR, COMPOSITION, AND USE THEREOF” (INNOVATION INSTITUTE FOR ARTIFICIAL INTELLIGENCE IN …, priority 2021, published 2025).

Columns and labels:
[1] = target: EGFR^L858R/T790M/C797S kinase (Homo sapiens (Human), UniProt P00533, C797S/L858R/T790M); experiment: EGFR^L858R/T790M/C797S kinase inhibitory activity experiment; type: biochemical; conditions: in vitro
Protocol: EGFRL^858R/T790M/C797S kinase inhibitory activity experiment: The compounds of the present invention have excellent in-vitro inhibitory activity against EGFR^L858R/T790M/C797S kinase
• Centrifuge (manufacturer: Eppendorf, model: 5430) • Microplate reader (manufacturer: Perkin Elmer, model: Caliper EZ ReaderII) • Echo 550 (manufacturer: Labcyte, model: Echo 550) • Experimental Method • Compound preparation: • A 10 mM storage solution was prepared.
(1) 1×Kinase buffer was prepared.
(2) Preparation of concentration gradient of compound: The tested compound has a test concentration starting from 1 μM, diluted 10 times, with 10 concentrations, and subjected to single-well or multi-well detection. The compound was diluted to a 100% DMSO solution with a final concentration of 100 times in a 384 source plate. […] of the compound at a final concentration of 100 times was transferred to the target plate 384-well-plate using the pipette Echo 550.
(3) A kinase solution with a final concentration of 2.5 times was prepared using 1× Kinase buffer.
(4) 10 μL of the kinase solution with the final concentration of 2.5 times was added to a compound well and a positive control well, respectively; 10 μL of 1×Kinase buffer was added to a negative control well.
(5) Centrifugation was conducted at 1000 rpm for 30 seconds, and the reaction plate was shaken and mixed well, and incubated at a room temperature for 10 minutes.
(6) A mixed solution of ATP with a final concentration of 5/3 times and Kinase substrate 22 was prepared using 1×Kinase buffer.
(7) A mixed solution of 15 μL of ATP with a final concentration of 5/3 times and a substrate was added for initial reaction.
(8) The 384-well-plate was centrifuged at 1000 rpm for 30 seconds, shaken and mixed well, and incubated at a room temperature for 60 minutes.
(9) 30 μL of a termination detection solution was added to stop the kinase reaction. Centrifugation was conducted at 1000 rpm for 30 seconds. Shaking and mixing well were conducted.
(10) The conversion rate was read using Caliper EZ Reader.
where Conversion %_sample is the conversion rate reading of the sample; Conversion %_min: the average value of negative control wells, representing the conversion rate reading of wells without enzyme activity; Conversion %_max: the average value of positive control wells, representing the conversion rate reading of wells without compound inhibition; % Inhibition represents the inhibition rate.
Fitting of Dose-Response Curve
Using the log value of concentration as the X-axis and the percentage inhibition rate as the Y-axis, the dose-response curve was fitted using the log(inhibitor) vs. response —Variable slope of the analysis software GraphPad Prism 5 to obtain the IC50 value of each compound on enzyme activity.

[2] = tested on: BaF3-EGFR^L858R/T790M/C797S cells; experiment: BaF3 cell proliferation inhibition experiment (CCK-8); type: cell-based; conditions: Ba/F3 EGFR-L858R, 72 hours
From the text: BaF3 cell proliferation inhibition experiment: The compounds of the present invention have excellent inhibitory activity against the proliferation of BaF3-EGFR^L858R/T790M/C797S cells
A. Cell line: BaF3 cells with stable overexpression of wild-type genes are named BaF3-EGFR^WT, and BaF3 cells with stable overexpression of EGFR^L858R/T790M/C797S EGFR^del19/T790M/C797S EGFR^L858R/C797S and EGFR^del19/C797S mutant genes are named BaF3-EGFR^L858R/T790M/C797S BaF3-EGFR^del19/T790M/C797S BaF3-EGFR^L858R/C797S and BaF3-EGFR^del19/C797S cells, respectively. Mediums:
(§1) a) The medium was preheated in a 37° C. water bath.
(§2) b) The cryopreservation tube was taken from the liquid nitrogen tank, quickly placed in a 37° C. water bath, and melted completely within 1 minute.
(§3) c) The cell suspension was transferred to a 15 mL centrifuge tube containing a 10 mL medium and centrifuged at 1000 rpm for 4 minutes.
(§4) d) The supernatant was discarded, the cells were resuspended in a 1 mL medium and transferred to a […] culture dish containing a 10 mL medium, 20% serum and 50 ng/mL EGF were administered to the first-generation medium, and culture was conducted in a 37° C. and 5% CO2 incubator.
(§5) b) The cells in the culture dish were blown evenly with a 5 mL pipette, and 500 μL of the cells were pipetted out to be inoculated into a new […] culture dish and cultured in a 37° C. and 5% CO2 incubator.
(§6) a) The compound to be tested (10 mM stock solution) was diluted with 100% DMSO to 1 mM, and diluted with a culture solution in a 24-well plate to prepare of a working solution of 2 μM concentration.
(§7) b) The 2 μM working solution was diluted with a triple dilution method to obtain working solutions with approximate concentrations of 2 μM, 600 nM, 200 nM, 60 nM, and 20 nM.
(§8) a) The cells at the logarithmic growth phase were centrifuged at 1000 rpm for 4 minutes, resuspended with a medium (containing 10% serum and 50 ng/mL EGF), and counted.
(§9) b) The cells were inoculated into a 96-well plate with a cell density of 4000 cells/well, and placed in a 37° C. and 5% CO2 incubator for culture for 12 hours.
(§10) a) The prepared compound was added to a 96-well plate, with 100 μL per well. The final concentrations were 1 μM, 300 nM, 100 nM, 30 nM, 10 nM, and 0 nM, and the final concentration of DMSO was 0.2%. A medium served as a blank control.
(§11) b) The cells were placed in 37° C. and 5% CO2 incubator for culture for 72 hours.
(§12) (5) Cell Viability Testing
a) The 96-well cell culture plate was taken out, and 20 μL of a CCK-8 reagent (Cell Counting Kit-8, Topscience, Catalog No. C0005) was added in the dark.
b) Mixing well was conducted on a horizontal shaking table at a room temperature at 100 rpm for 5 minutes.
c) The culture plate was placed in a 37° C. constant-temperature incubator for incubation.
d) Starting from the addition of the CCK-8, the absorbance at 450 nm was read using the TECAN microplate reader at 1 hour, 2 hours, and 3 hours, respectively.
(§13) The data was analyzed using GraphPad Prism 8.0 software to obtain a fitted curve of activity of the compounds. The IC50 of the compounds was fitted from nonlinear regression equation.

A431 cells = experiment: A431 cell proliferation inhibition (SRB); type: cell-based; conditions: Homo sapiens, A-431, wild-type EGFR, 72 hours
Protocol: A431 cell proliferation inhibition: The compounds of the present invention have good selectivity to wild-type EGFR
as §1, §2, §3, §4, §5, §6, §7, §8, §9, §10, §11, §12
a) The cell supernatant was discarded, rinsed once with 1×PBS, and fixed with 10% trichloroacetic acid for 1 hour. The trichloroacetic acid was discarded, excess trichloroacetic acid was washed off with tap water, and the 96-well plate was dried in a 60° C. oven.
b) 70 μL of an SRB stain was added to each well of the dry 96-well plate for staining at a room temperature for 30 minutes. Excess SRB stain was washed off with 1% glacial acetic acid, and the 96-well plate was dried in a 60° C. oven.
c) SRB was dissolved with 100 μL of 10 mM Tris-base solution. The absorbance was detected at 540 nm ultraviolet absorption using the microplate reader. The data was analyzed.
as §13

Chain of EGFR^L858R/T790M/C797S kinase (P00533 25-1210 T790M/C797S/L858R): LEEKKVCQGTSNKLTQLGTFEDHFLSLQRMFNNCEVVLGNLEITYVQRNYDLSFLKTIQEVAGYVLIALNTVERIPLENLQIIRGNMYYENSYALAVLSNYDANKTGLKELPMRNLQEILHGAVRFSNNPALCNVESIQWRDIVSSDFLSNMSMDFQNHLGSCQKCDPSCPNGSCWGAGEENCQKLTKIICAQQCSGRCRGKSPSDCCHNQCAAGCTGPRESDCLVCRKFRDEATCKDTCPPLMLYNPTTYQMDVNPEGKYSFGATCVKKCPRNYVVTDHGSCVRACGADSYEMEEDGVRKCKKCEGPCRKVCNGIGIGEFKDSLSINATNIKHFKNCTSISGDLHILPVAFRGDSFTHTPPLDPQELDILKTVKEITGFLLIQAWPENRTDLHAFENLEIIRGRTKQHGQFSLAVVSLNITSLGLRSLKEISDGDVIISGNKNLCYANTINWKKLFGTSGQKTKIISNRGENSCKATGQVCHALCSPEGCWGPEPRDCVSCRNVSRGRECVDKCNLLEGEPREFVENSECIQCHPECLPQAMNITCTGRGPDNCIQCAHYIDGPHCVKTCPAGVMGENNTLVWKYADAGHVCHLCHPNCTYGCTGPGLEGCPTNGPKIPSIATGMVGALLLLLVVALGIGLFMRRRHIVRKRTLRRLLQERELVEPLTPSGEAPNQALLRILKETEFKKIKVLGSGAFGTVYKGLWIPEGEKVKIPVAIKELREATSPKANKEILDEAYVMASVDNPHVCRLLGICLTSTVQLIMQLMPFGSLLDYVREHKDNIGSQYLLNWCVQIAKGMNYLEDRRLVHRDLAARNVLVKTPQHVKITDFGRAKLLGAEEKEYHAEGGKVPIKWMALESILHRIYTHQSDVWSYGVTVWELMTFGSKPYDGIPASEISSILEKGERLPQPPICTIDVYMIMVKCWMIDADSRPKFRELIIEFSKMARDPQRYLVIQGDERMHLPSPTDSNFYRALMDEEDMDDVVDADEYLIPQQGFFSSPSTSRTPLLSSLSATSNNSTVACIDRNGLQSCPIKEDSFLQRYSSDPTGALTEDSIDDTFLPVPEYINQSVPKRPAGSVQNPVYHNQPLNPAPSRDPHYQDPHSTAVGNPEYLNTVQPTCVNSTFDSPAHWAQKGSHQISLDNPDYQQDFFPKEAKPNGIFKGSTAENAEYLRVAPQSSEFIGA

SMILES | IC50 [1] [nM] | IC50 [2] [nM] | IC50 (A431 cells) [nM]
CCc1cc(Nc2ncc(Cl)c(Nc3cc(C)c(C)cc3P(C)(C)=O)n2)c(OC)cc1N1CCC2(CC1)CC(N(C)C)C2 [Compound 17, (2-((5-Chloro-2-((4-(2-(dimethylamino)-7-azaspiro[3.5]non-7-yl)-5-ethyl-2-methoxyphenyl)amino)pyrimidin-4-yl)amino)-4,5-dimethylphenyl)dimethylphosphine oxide] | 0.77 | 45.4 | > 500
CCc1cc(Nc2ncc(Cl)c(Nc3cc(C(F)(F)F)ccc3P(C)(C)=O)n2)c(OC)cc1N1CCC2(CC1)CC(N(C)C)C2 [Compound 8, (2-((5-Chloro-2-((4-(2-(dimethylamino)-7-azaspiro[3.5]nonan-7-yl)-5-ethyl-2-methoxypheny 1)amino)pyrimidin-4-yl)amino)-4-(trifluoromethyl)phenyl)dimethylphosphine oxide] | 29 | 261 | > 1000
COc1cc(N2CCC3(CC2)CC(N(C)C)C3)c(Cl)cc1Nc1ncc(Cl)c(Nc2ccc(C)c(C)c2P(C)(C)=O)n1 [Compound 21, (6-((5-chloro-2-((5-chloro-4-(2-(dimethylamino)-7-azaspiro[3.5]nonan-7-yl)-2-methoxyphenyl)amino)pyrimidin-4-yl)amino)-2,3-dimethylphenyl)dimethylphosphine oxide] | 0.65 | 33.3 | > 500
COc1cc(N2CC3(CCN(C)CC3)C2)c(C)cc1Nc1ncc(Cl)c(Nc2ccc(C)c(C)c2P(C)(C)=O)n1 [Compound 32] | 0.92 | 55.4 | 962
COc1cc(N2CC3(CCN(C)CC3)C2)c(C)cc1Nc1ncc(Cl)c(Nc2cc(C)c(C)cc2P(C)(C)=O)n1 [Compound 5, (2-((5-Chloro-2-((2-methoxy-5-methyl-4-(7-methyl-2,7-diazaspiro[3.5]nonan-2-yl)phenyl)amino)pyrimidin-4-yl)amino)-4,5-dimethylphenyl)dimethylphosphine oxide] | 11 | 42.3 | > 500
CCc1cc(Nc2ncc(Cl)c(Nc3ccc(C)c(C)c3P(C)(C)=O)n2)c(OC)cc1N1CCC2(CCN(C)CC2)CC1 [Compound 55, (6-((5-Chloro-2-((5-ethyl-2-methoxy-4-(9-methyl-3,9-diazaspiro[5.5]undecan-3-yl)phenyl)amino)pyrimidin-4-yl)amino)-2,3-dimethylphenyl)dimethylphosphine oxide] | 0.297 | 48.6 | 700
COc1cc(N2CC3(CCC(N(C)C)CC3)C2)c(C)cc1Nc1ncc(Cl)c(Nc2ccc(C)c(C)c2P(C)(C)=O)n1 [Compound 3, (6-((5-Chloro-2-((4-(7-(dimethylamino)-2-azaspiro[3.5]nonan-2-yl)-2-methoxy-5-methylphenyl)amino)pyrimidin-4-yl)amino)-2,3-dimethylphenyl)dimethylphosphine oxide] | 21 | – | –
CCN1CCC2(CC1)CN(c1cc(OC)c(Nc3ncc(Cl)c(Nc4ccc(C)c(C)c4P(C)(C)=O)n3)cc1C)C2 [Compound 33] | 0.73 | – | –
COc1cc(N2CC3(CCC(CC#N)CC3)C2)c(Cl)cc1Nc1ncc(Cl)c(Nc2cc(C)c(C)cc2P(C)(C)=O)n1 [Compound 43, 2-(2-(2-chloro-4-((5-chloro-4-((2-(dimethylphosphoryl)-4,5-dimethylphenyl)amino)pyrimidin-2-yl)amino)-5-methoxyphenyl)-2-azaspiro[3.5]nonan-7-yl)acetonitrile] | 25.2 | – | –
CCN1CCC2(CC1)CN(c1cc(OC)c(Nc3ncc(Cl)c(Nc4ccc(C)c(C)c4P(C)(C)=O)n3)cc1Cl)C2 [Compound 35] | 0.68 | – | –
CCc1cc(Nc2ncc(Cl)c(Nc3cc(Cl)c(Cl)cc3P(C)(C)=O)n2)c(OC)cc1N1CC2(CCN(CC(F)F)CC2)C1 [Compound 38] | 0.59 | – | –
CCc1cc(Nc2ncc(Cl)c(Nc3cc(C)c(C)cc3P(C)(C)=O)n2)c(OC)cc1N1CCC(N2CCOCC2)CC1 [Compound 14, (2-((5-chloro-2-((5-ethyl-2-methoxy-4-(4-morpholinopiperidin-1-yl)phenyl)amino)pyrimidin-4-yl)amino)-4,5-dimethylphenyl)dimethylphosphine oxide] | 8.3 | – | –
COc1cc(N2CC3(CCN(C4CC4)CC3)C2)c(Cl)cc1Nc1ncc(Cl)c(Nc2cc(C)c(C)cc2P(C)(C)=O)n1 [Compound 41] | 0.89 | – | –
CCc1cc(Nc2ncc(Cl)c(Nc3ccc(C)c(C)c3P(C)(C)=O)n2)c(OC)cc1N1CC2(CCN(CC(F)F)CC2)C1 [Compound 28] | 0.99 | – | –
CCc1cc(Nc2ncc(Cl)c(Nc3ccc(C)c(C)c3P(C)(C)=O)n2)c(OC)cc1N1CC2(CCC(CC#N)CC2)C1 [Compound 29, 2-(2-(4-((5-chloro-4-((2-(dimethylphosphoryl)-3,4-dimethylphenyl)amino)pyrimidin-2-yl)amino)-2-ethyl-5-methoxyphenyl)-2-azaspiro[3.5]nonane-7-yl)acetonitrile] | 18.1 | – | –
COc1cc(N2CCC(N3CCN(C)CC3)CC2)c(C)cc1Nc1ncc(Cl)c(Nc2ccc(C)c(C)c2P(C)(C)=O)n1 [BD-2, (6-((5-Chloro-2-((2-methoxy-5-methyl-4-(4-(4-methylpiperazin-1-yl)piperidin-1-yl)phenyl)amino)pyrimidin-4-yl)amino)-2,3-dimethylphenyl)dimethylphosphine oxide] | 5 | – | –
CCc1cc(Nc2ncc(Cl)c(Nc3cccc(Cl)c3P(C)(C)=O)n2)c(OC)cc1N1CC2(CCN(C)CC2)C1 [Compound 46] | 0.63 | – | –
